Where “and” joins values, the source holds several entries; their conditions need not be identical. Identical values can stand only once.
Tests used:
[1] = Powder Stain Prevention Model (PSPM)
Text: The Powder Stain Prevention Model (PSPM) is a screening technique where hydroxyapatite powder (HAP) is used as a substrate for stain accumulation. The general purpose of this technique is to illustrate and quantify the stain prevention ability or staining potential of chemical agents used in oral care. Hydroxyapatite powder provides a large surface area to which tea chromogens adsorb. Pretreatment of HAP with oral care actives, either in rinse or dentifrice form, results in different levels of stain accumulation depending upon the ability of the actives to block or enhance the binding of these chromogens onto HAP surface. The magnitude of stain can then be quantified by image analysis.
Tube is vortexed for 30 seconds to fully suspend HAP in treatment followed by centrifugation at 15,000 rpm for 15 mins. After centrifugation, supernatant is decanted and pellet redistributed by adding 25 ml of water, vortexing, centrifuging at 15,000 rpm for 15 mins, and decanting-making sure pellet breaks up during vortexing. The wash cycle is repeated two more times.
After final water wash, 20 ml of filtered tea (1 Lipton tea bag per 100 ml of hot water seeped for 5 minutes, filtered and used at 50° C.) is added to each pellet and vortexed for 30 seconds to fully suspend HAP in tea. Powder suspension is centrifuged at 15,000 rpm for 15 mins and decanted. About 25 ml of water is added to the tube, vortexed and then centrifuging at 15,000 rpm for 15 mins. The liquid is decanted and wash cycle is repeated 2 more times.
Vortex pellet in approximately 10 ml of water until fully suspended followed by filtering under vacuum onto a Millipore filter disk (Membrane Filters 4.5 μm, 47 mm Catalog #HAWP04700, Millipore Corporation, Bedford, Mass.). Prepare a control disk using. −200 mg of untreated, unstained HAP. Filter disks are then dried overnight in flat position and then laminated.
Whitelight system: HAP disk (untreated HAP control and HAP treatments) is placed in a stabilized sample holder. The color is measured using a digital camera having a lens equipped with a polarizer filter (Camera model no. CANON EOS 70D from Canon Inc., Melville, N.Y. with NIKON 55 mm micro-NIKKOR lens with adapter). The light system is provided by Dedo lights (model number DLH2) equipped with 150 watt, 24V bulbs model number (Xenophot model number HL X64640), positioned about 30 cm apart (measured from the center of the external circular surface of one of the glass lens through which the light exits to the other) and aimed at a 45 degree angle such that the light paths meet on the HAP disk. Image analysis is performed using Whitelight with Ultragrab, Optimas and Giant Imaging software.
Usual controls for a single polymer PSPM are water as a treatment followed by exposure to tea, and water without exposure to tea. […]

[2] = Powder Stain Removal Model (PSRM)
Text: The Powder Stain Removal Model (PSRM) is a screening technique where hydroxyapatite powder (HAP) is used as a substrate for stain accumulation. The purpose of this technique is to illustrate and quantify the stain removal properties of chemical agents used in oral care. Hydroxyapatite powder provides a large surface area to which tea chromogens adsorb. […] The magnitude of stain removal can then be quantified by image analysis. A trial of this model can be completed in three days. Steps involved in PSRM are described below.
Prepare large batch of tea stain HAP by stirring 10 g of HAP powder in 200 ml of filtered tea for 5 minutes. Divide into centrifuge tubes and centrifuge at 15,000 rpm for 15 mins. Wash pellet by adding in 25 ml of water, vortexing, centrifuging at 15,000 rpm for 15 mins, and pipet out liquid. Make sure pellet breaks up during vortexing. Repeat wash.
Place centrifuge tubes in convection oven (55-65° C.) overnight to dry stained HAP. Once dried, pool stained HAP together and grind to a fine powder with pestle and mortar.
Tube is vortexed for I minute to fully suspend HAP in treatment followed by centrifugation at 15,000 rpm for 15 mins. After centrifugation, supernatant is decanted and pellet redistributed by adding 25 ml of water, vortexing, centrifuging at 15,000 rpm for 15 mins, and decanting-making sure pellet breaks up during vortexing. The wash cycle is repeated one more time.
Vortex pellet in approximately 10 ml of water until fully suspended followed by filtering under vacuum onto a Millipore filter disk (Membrane Filters 4.5 μm, 47 mm Catalog #HAWP04700, Millipore Corporation, Bedford, Mass.). Prepare a control disk using=200 mg of untreated, stained HAP. Filter disks are then dried overnight in flat position and then laminated.
Whitelight system: HAP disk (untreated HAP control and HAP treatments) is placed in a stabilized sample holder. The color is measured using a digital camera camera having a lens equipped with a polarizer filter (Camera model no. CANON EOS 70D from Canon Inc., Melville, N.Y. with NIKON 55 mm micro-NIKKOR lens with adapter). The light system is provided by Dedo lights (model number DLH2) equipped with 150 watt, 24V bulbs model number (Xenophot model number HL X64640), positioned about 30 cm apart (measured from the center of the external circular surface of one of the glass lens through which the light exits to the other) and aimed at a 45 degree angle such that the light paths meet on the HAP disk. Image analysis is performed using Whitelight with Ultragrab, Optimas and Giant Imaging software.
Usual controls for a single polymer PSRM are water as a treatment followed by exposure to tea, and water without exposure to tea. Additionally, pyrophosphate and polyphosphate are run as internal controls. […]

O=P(O)(O)OP(=O)(O)O [Pyrophosphate]
Delta L [1]: 16.3 | PSPM (ΔL) [1]: 12.2-16.0 | PSPM ΔL [1]: 18.0 and 14.3 | Delta L [2]: 14.2 | PSRM (ΔL) [2]: 13.0-18 | PSRM ΔL [2]: 12.4 and 13.5
